GI50 and TGI data for 11 molecules are collected here from PubChem BioAssay (NCI).

The structures appear in SMILES notation. “And” between values parts separate entries of the source, which are not always exact repeats. Equal entries are not always repeated.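 Protocol summary: plate cells (96-well), add compound at 5 concentrations, incubate 48 h, interpolate endpoints linearly. GI50 = concentration required for 50% inhibition of growth. TGI: concentration producing complete growth inhibition.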

What is called GI50 is the concentration that inhibits growth by half. For orientation: TGI means the concentration at which net growth stops. A high value points to lower sensitivity of the cells.

Common to all, as to assay: DTP human tumour cell line panel, 48 h
The test system of experiment [1] is CCRF-CEM leukemia.
Experiment [2] concerns EKVX NSCLC.
The test system of experiment [3] is HCT-15 colon.
The subject of experiment [4] is NCI-H460 lung.
The subject of experiment [5] is OVCAR-4 ovarian.
In experiment [6] the test system is SF-295 CNS.
The subject of experiment [7] is SK-OV-3 ovarian.
Experiment [8] deals with SNB-75 CNS.
Experiment [9] relates to U251 CNS.
Experiment [10] deals with UACC-62 melanoma.

Take `COc1cc(NC(=O)CSc2nc3ccc(C)cc3c(=O)n2Cc2ccccc2)cc(OC)c1OC`: the GI50 in experiment [1] was more than 100 µM; in experiment [2], 8.59 µM; in experiment [3], more than 100 µM; in experiment [4], 7.24 µM; in experiment [5], 3.41 µM; in experiment [6] it was 7.01 µM. The GI50 in [7] is 3.06 µM; in experiment [8], 1.82 µM; in experiment [9] it was 3.93 µM; in experiment [10] it was 2.93 µM. For the same molecule, the TGI in experiment [1] is more than 100 µM; in experiment [2] it was more than 100 µM; in [3], more than 100 µM; in experiment [4], more than 100 µM; in [5] it was 33.3 µM; in experiment [6] it was more than 100 µM. The TGI in experiment [7] was 8.58 µM; in [8] it was 4.33 µM; in experiment [9] it was 24 µM; in experiment [10], more than 100 µM.
Take `C[C@]12CCC(=O)C(O)=C1CC[C@@H]1C2CC[C@]2(C)Nc3c(cnn3-c3ccccc3)CC12` (some centres not stated): the total growth inhibition concentration (TGI) in experiment [1], in experiment [2], in experiment [3], in experiment [4], in experiment [5] and in experiment [6] was more than 100 µM in each case. Further, the TGI in experiment [7], in experiment [8], in experiment [9] and in experiment [10] was more than 100 µM throughout.
Regarding `O=C1C2C(c3ccccc3)NC(c3ccccc3)C1C(c1ccccc1)NC2c1ccccc1` (configuration not stated), the total growth inhibition concentration (TGI) in experiment [1], in experiment [2], in [3], in experiment [4], in experiment [5] and in [6] was more than 100 µM throughout. The TGI in [7], in experiment [8], in experiment [9] and in experiment [10] was more than 100 µM each time.
In the case of `COc1cccc(OCCCN)c1-c1cc(Nc2cnc(C#N)cn2)n[nH]1`, the concentration for total growth inhibition (TGI) in experiment [1] is more than 73 µM; in experiment [2], 45.6 µM; in experiment [3] it was 14 µM; in experiment [4], 12.6 µM; in experiment [5], 14.9 µM; in experiment [6] it was 13.4 µM. Also, the TGI came to 7.02 µM in [7], 13.9 µM in [8] and 14.4 µM in experiment [9]. Also, the concentration for 50% growth inhibition (GI50) in experiment [3] is 0.0585 µM and 0.07 µM; in experiment [4] it was 0.0487 µM and 0.0436 µM; in experiment [5], 0.00793 µM and < 0.0249 µM; in experiment [6] it was 0.0037 µM; in experiment [7], 0.00474 µM; in experiment [8] it was 2.07 µM. In addition, the GI50 in experiment [9] was 0.0759 µM and 0.0569 µM; in experiment [10], 0.0231 µM.
For `O=c1nc(NC(c2ccccc2)(c2ccccc2)c2ccccc2)ccn1CCNCCn1ccc(NC(c2ccccc2)(c2ccccc2)c2ccccc2)nc1=O`, the TGI was more than 100 µM in experiment [1]; 63.6 µM in experiment [2]; more than 100 µM in experiment [3]; 33.8 µM in experiment [4]; 49 µM in [5]; 27.3 µM in [6]. The concentration for total growth inhibition (TGI) is 46.1 µM in experiment [7], more than 100 µM in [8], 18.8 µM in experiment [9] and 24.1 µM in [10].
For `COc1ccc(C(=O)/C=C/c2ccc3c(c2)OCO3)c(OCc2ccccc2)c1`, the TGI in [1] was more than 26.9 µM; in [2], more than 100 µM; in [3] it was more than 100 µM; in experiment [4], more than 100 µM; in experiment [5], more than 61 µM; in experiment [6], more than 100 µM. Besides, the TGI in experiment [7], in experiment [8], in [9] and in [10] was more than 100 µM each time.
Take `N#CC1=C(N)Oc2c(sc3c(Br)cccc23)C1c1ccc(Br)cc1` (configuration not stated): the GI50 in experiment [1] was 0.496 µM; in [2], 3.31 µM; in [3], 0.601 µM; in [4], 0.668 µM; in experiment [5], 1.46 µM; in experiment [6], 0.38 µM. Moreover, the GI50 was 0.316 µM in [7], 0.407 µM in [8], 0.544 µM in [9] and 0.636 µM in experiment [10]. The concentration for total growth inhibition (TGI) in experiment [1] is 13.6 µM; in [2], 20.5 µM; in [3] it was 11.4 µM; in experiment [4], 4.51 µM; in experiment [5] it was 15.5 µM; in [6], 2.85 µM. Further, the TGI in experiment [7] was 3.38 µM; in [8], 3.09 µM; in [9], 2.05 µM; in experiment [10] it was 16.5 µM.
As to `O=C(O)CNS(=O)(=O)c1ccc(NC(=O)CI)cc1`, the TGI in experiment [1] is 5.85 µM; in [2] it was 81.6 µM; in experiment [3], 41.5 µM; in experiment [4], 64 µM; in experiment [5], 41.4 µM; in experiment [6] it was 68.5 µM. Also, the total growth inhibition concentration (TGI) in [7] was 72.8 µM; in [8], 32.2 µM; in experiment [9], 35 µM; in experiment [10] it was 66.8 µM.
With `CCN(CC)CCn1c2ccccc2c(=O)c2c(O)ccc(O)c21`, the TGI in experiment [1] is more than 90.2 µM; in experiment [2] it was more than 46.4 µM; in experiment [3], more than 58.5 µM; in experiment [4], more than 71.9 µM; in [5], 34.5 µM; in experiment [6], 56.1 µM. For the same molecule, the total growth inhibition concentration (TGI) in experiment [7] is more than 81 µM; in experiment [8], 49.5 µM; in experiment [9] it was 74.1 µM; in experiment [10], 52.8 µM.
`O=C(O)CCC(NC(=O)c1ccccc1)C(=O)O` (configuration not stated): the TGI in experiment [1], in experiment [2], in experiment [3], in [4], in experiment [5] and in [6] was more than 100 µM each time. In addition, the TGI in [7], in experiment [8], in experiment [9] and in experiment [10] was more than 100 µM in each case.
Regarding `Cc1[nH]c(=O)n2c(C)nnc2c1C(=O)Nc1cc(Cl)cc(Cl)c1`, the concentration for total growth inhibition (TGI) in experiment [1] is more than 100 µM; in experiment [2] it was more than 100 µM; in experiment [3], 78.7 µM; in experiment [4] it was more than 100 µM; in experiment [5], more than 100 µM; in experiment [6] it was more than 100 µM. In addition, the TGI in experiment [7] was determined as 70.7 µM; in [8] it was 88.9 µM; in experiment [9], 53.2 µM; in experiment [10] it was 41 µM.
